Assay results taken from the NIST ThermoML archive (doi:10.1021/je060271a).
Values joined by “and” are separate entries in the source; they are usually repeats but may differ in a detail not shown here. Equal entries are not always repeated.

Conditions: Liquid, Vibrating tube method

CCCCCC(=O)OCC(COC(=O)CCCCC)(COC(=O)CCCCC)COC(=O)CCCCC [pentaerythritol tetrahexanoate]
Conditions	mass density
323.17 K, 28058 kPa	990.9 kg/m3
323.17 K, 28086 kPa	991 kg/m3
323.17 K, 28114 kPa	991 kg/m3
323.17 K, 28143 kPa	991 kg/m3
323.17 K, 28171 kPa	991 kg/m3
323.17 K, 28198 kPa	991 kg/m3
323.17 K, 28227 kPa	991 kg/m3
323.17 K, 28250 kPa	991 kg/m3
323.17 K, 28280 kPa	991.1 kg/m3
323.17 K, 32281 kPa	993.5 kg/m3
323.17 K, 32302 kPa	993.5 kg/m3
323.17 K, 32323 kPa	993.5 kg/m3
323.17 K, 32340 kPa	993.5 kg/m3
323.17 K, 32354 kPa	993.5 kg/m3
323.18 K, 15635 kPa	983.3 kg/m3
323.18 K, 15665 kPa	983.3 kg/m3
323.18 K, 15689 kPa	983.4 kg/m3
323.18 K, 15719 kPa	983.4 kg/m3
323.18 K, 15747 kPa	983.4 kg/m3
323.18 K, 15770 kPa	983.3 kg/m3
323.18 K, 15797 kPa	983.4 kg/m3
323.18 K, 15822 kPa	983.4 kg/m3
323.18 K, 16186 kPa	983.7 kg/m3
323.18 K, 16212 kPa	983.6 kg/m3
323.18 K, 16234 kPa	983.7 kg/m3
323.18 K, 16261 kPa	983.7 kg/m3
323.18 K, 16283 kPa	983.8 kg/m3
323.18 K, 25706 kPa	989.7 kg/m3
343.14 K, 219.9 kPa	957.2 kg/m3
343.14 K, 220 kPa	957.3 kg/m3
343.14 K, 220.3 kPa	957.1 kg/m3 and 957.2 kg/m3
343.14 K, 223.6 kPa	957.3 kg/m3
343.14 K, 348.7 kPa	957.3 kg/m3
343.14 K, 348.9 kPa	957.2 kg/m3
343.14 K, 349 kPa	957.3 kg/m3
343.14 K, 349.6 kPa	957.4 kg/m3
343.14 K, 350.2 kPa	957.3 kg/m3
343.14 K, 350.4 kPa	957.2 kg/m3
343.14 K, 350.6 kPa	957.3 kg/m3
343.14 K, 351.1 kPa	957.3 kg/m3
343.14 K, 351.3 kPa	957.3 kg/m3
343.14 K, 387.3 kPa	957.4 kg/m3
343.14 K, 387.4 kPa	957.2 kg/m3
343.14 K, 388.3 kPa	957.4 kg/m3 and 957.5 kg/m3
343.14 K, 388.5 kPa	957.4 kg/m3
343.14 K, 388.8 kPa	957.5 kg/m3
343.14 K, 389.7 kPa	957.3 kg/m3
343.14 K, 390.2 kPa	957.5 kg/m3
343.14 K, 754.9 kPa	957.7 kg/m3
343.14 K, 762.4 kPa	957.6 kg/m3
343.14 K, 769.9 kPa	957.7 kg/m3
343.14 K, 778.4 kPa	957.6 kg/m3
343.14 K, 925.3 kPa	957.8 kg/m3
343.14 K, 935.1 kPa	957.8 kg/m3
343.14 K, 947.2 kPa	957.8 kg/m3
343.14 K, 956.9 kPa	957.8 kg/m3
343.14 K, 1145.7 kPa	958 kg/m3
343.14 K, 1156.5 kPa	958 kg/m3
343.14 K, 1168 kPa	958 kg/m3
343.14 K, 1181.7 kPa	958 kg/m3
343.14 K, 1193 kPa	958 kg/m3
343.14 K, 1206.5 kPa	958 kg/m3
343.14 K, 1218.3 kPa	958 kg/m3
343.14 K, 1230.1 kPa	958.1 kg/m3
343.14 K, 1242.1 kPa	958.1 kg/m3
343.14 K, 1256.4 kPa	958.1 kg/m3
343.14 K, 1268.3 kPa	958 kg/m3
343.14 K, 2111 kPa	958.7 kg/m3
343.14 K, 2133.5 kPa	958.7 kg/m3
343.14 K, 2152.4 kPa	958.7 kg/m3
343.14 K, 2172.4 kPa	958.8 kg/m3
343.14 K, 2192.8 kPa	958.8 kg/m3
343.14 K, 2212.6 kPa	958.8 kg/m3
343.14 K, 2232.6 kPa	958.8 kg/m3
343.14 K, 2256.5 kPa	958.8 kg/m3
343.14 K, 2276.6 kPa	958.9 kg/m3
343.14 K, 2301.1 kPa	958.8 kg/m3
343.14 K, 2322.3 kPa	958.9 kg/m3
343.14 K, 2342.9 kPa	958.8 kg/m3
343.14 K, 2498.5 kPa	959.1 kg/m3
343.14 K, 2520.2 kPa	958.9 kg/m3
343.14 K, 2541.5 kPa	959.1 kg/m3
343.14 K, 2567.9 kPa	959 kg/m3
343.14 K, 2590.1 kPa	959.1 kg/m3
343.14 K, 2612.1 kPa	959 kg/m3
343.14 K, 2638.5 kPa	959.1 kg/m3
343.14 K, 2660.7 kPa	959.1 kg/m3
343.14 K, 2683.4 kPa	959.2 kg/m3
343.14 K, 6196.6 kPa	961.7 kg/m3
343.14 K, 6236.7 kPa	961.9 kg/m3
343.14 K, 6269.8 kPa	961.8 kg/m3
343.14 K, 6638.6 kPa	962.2 kg/m3
343.14 K, 6667.6 kPa	962.1 kg/m3
343.14 K, 6695.6 kPa	962.2 kg/m3
343.14 K, 6726.9 kPa	962.2 kg/m3
343.14 K, 7550.4 kPa	962.9 kg/m3
343.14 K, 7576.5 kPa	962.8 kg/m3
343.14 K, 7602.9 kPa	962.8 kg/m3
343.14 K, 7633.5 kPa	962.9 kg/m3
343.14 K, 7659 kPa	962.9 kg/m3
343.14 K, 7685.3 kPa	963 kg/m3
343.14 K, 7716.2 kPa	962.9 kg/m3
343.14 K, 7742 kPa	963 kg/m3
343.14 K, 8529.9 kPa	963.5 kg/m3
343.14 K, 8557.5 kPa	963.5 kg/m3
343.14 K, 8590 kPa	963.6 kg/m3
343.14 K, 8617.8 kPa	963.7 kg/m3
343.14 K, 8680.1 kPa	963.6 kg/m3
343.14 K, 8708.7 kPa	963.8 kg/m3
343.14 K, 11319 kPa	965.5 kg/m3
343.14 K, 11356 kPa	965.5 kg/m3
343.14 K, 11392 kPa	965.6 kg/m3
343.14 K, 11435 kPa	965.6 kg/m3
343.14 K, 11471 kPa	965.7 kg/m3
343.14 K, 11507 kPa	965.8 kg/m3
343.14 K, 11550 kPa	965.7 kg/m3
343.14 K, 11586 kPa	965.8 kg/m3
343.14 K, 11622 kPa	965.8 kg/m3
343.14 K, 11664 kPa	966 kg/m3
343.14 K, 12063 kPa	966.2 kg/m3
343.14 K, 12100 kPa	966.1 kg/m3
343.14 K, 12131 kPa	966.2 kg/m3
343.14 K, 12213 kPa	966.1 kg/m3
343.14 K, 17659 kPa	969.9 kg/m3
343.14 K, 18549 kPa	970.7 kg/m3
343.14 K, 18578 kPa	970.7 kg/m3
343.14 K, 18602 kPa	970.7 kg/m3
343.14 K, 18626 kPa	970.7 kg/m3
343.14 K, 18893 kPa	970.8 kg/m3
343.14 K, 20126 kPa	971.6 kg/m3 and 971.7 kg/m3
343.14 K, 20127 kPa	971.7 kg/m3
343.14 K, 20128 kPa	971.7 kg/m3
343.14 K, 25755 kPa	975.4 kg/m3
343.14 K, 25795 kPa	975.4 kg/m3
343.14 K, 25825 kPa	975.4 kg/m3
343.14 K, 25856 kPa	975.4 kg/m3
343.14 K, 25888 kPa	975.5 kg/m3
343.14 K, 25925 kPa	975.6 kg/m3
343.14 K, 25957 kPa	975.5 kg/m3
343.14 K, 25988 kPa	975.6 kg/m3
343.14 K, 26018 kPa	975.6 kg/m3
343.14 K, 26052 kPa	975.6 kg/m3
343.15 K, 203.3 kPa	957.3 kg/m3
343.15 K, 203.6 kPa	957.2 kg/m3 and 957.3 kg/m3 and 957.1 kg/m3
